The source of these data is article PMC4086519, “Anti-Trichophyton Activity of Protocatechuates and Their Synergism with Fluconazole” (Evidence-based Complementary and Alternative Medicine : eCAM, 2014).

Converted amounts (≈) assume the structure as drawn.

Data set [1] deals with Trichophyton mentagrophytes. The data set is described as follows: Checkerboard synergism assay with fluconazole. To be noted: for MIC, substances alone: checkerboard, 168 hours. The format is cell-based. The protocol: (§1) The drug activity was assessed using a checkerboard method derived from a standardised procedure established by the National Committee for Clinical Laboratory Standards ([…]-A2). Briefly, the test was performed on the same medium used for susceptibility testing. Volumes of 50 μL of each drug in a concentration four times the final concentration were dispensed in 96-well plates ([…], Switzerland). To each well, 100 μL of the fungal suspension was added to produce a final concentration of 5.0 × 10^3 CFU/mL. As a negative control, we used 200 μL of RPMI, while as a positive control, we used 100 μL of RPMI medium with 100 μL of inoculum. The plates were incubated at 35°C, and the reading was completed after 168 hours. We conducted visual and spectrophotometric readings at 490 nm. To determine the effect of combinatorial fractions, we calculated the fractional inhibitory concentration (FIC). The FIC was calculated by taking the MIC of the substance in combination/MIC of the substance alone. The sum of the fractional inhibitory concentration (FIC) of each substance consists of the fractional inhibitory concentration index: (the MIC of drug A in combination/the MIC of drug A alone) + (the MIC of drug B in combination/the MIC of drug B alone).

Data set [2] concerns Trichophyton rubrum. The data set is described as follows: Checkerboard synergism assay with fluconazole. The format is cell-based. The protocol: as §1
Data set [3] concerns Trichophyton mentagrophytes. Briefly: Broth microdilution MIC (CLSI M38-A2, modified). Particulars: 35°C, 7 days. The format is cell-based. The protocol:
(§2) To evaluate its antifungal activity, […] of dermatophytes were tested: two clinical strains of Trichophyton rubrum (Tr1 and Tr2), Trichophyton rubrum ATCC MYA 3108, two clinical strains of Trichophyton mentagrophytes (Tm1 and Tm2), and Trichophyton mentagrophytes ATCC 40131 (Tm3). The microorganisms were obtained from the collection of the Clinical Mycology Laboratory of the Department of Clinical Analyses at the School of Pharmaceutical Sciences of Universidade Estadual Paulista (UNESP). The strains were cultivated on Sabouraud dextrose agar (Difco, BD Biosciences) and incubated at 28°C for 7-15 days. For all experiments, the strains were cultivated on Potato Dextrose Agar (Difco, BD Biosciences) and incubated at 28°C as described above or until sporulation. The dilution of the synthetic compounds was performed with DMSO (Synth, Diadema, Sao Paulo, Brazil) as described by Scorzoni et al.. […] The antifungal drugs were diluted according to the CLSI […]-A2 document. Stock solutions of Fluconazole (Sigma-Aldrich, St. Louis, MO, USA) were prepared, considering its power. Serial twofold dilutions were prepared according to the recommendations of Zhang and collaborators, with some modifications. The antifungal activity tests were performed using the broth microdilution method as described in […]-A2, a document produced by the Clinical and Laboratory Standards Institute (CLSI, 2008), with modifications. The medium used was RPMI 1640 with L-glutamine (Sigma-Aldrich, St. Louis, MO, USA) buffered to pH 7.0 with 0.165 M morpholinepropanesulfonic acid (MOPS) (Sigma-Aldrich, St. Louis, MO, USA), supplemented with 2% glucose. […] The suspension of conidia was then transferred to small sterile test tubes where they remained for 40 minutes to separate the microconidia, which were lighter and therefore present in the supernatant. […] These suspensions were diluted in RPMI 1640 (Sigma-Aldrich, St. […] Positive (100 μL of RPMI medium with 100 μL of inoculum) and negative (200 μL of RPMI) controls were included in all experiments. The plates were incubated with agitation at 35°C for 7 days. The MIC reading was performed by spectrophotometry at 490 nm.
(In general: Dilution methods test growth across graded concentrations, often in twofold steps.)

Data set [4] deals with Trichophyton rubrum. Briefly: Broth microdilution MIC (CLSI M38-A2, modified). It counts as cell-based. To be noted: 35°C, 7 days. The protocol: as §2
Data set [5] concerns Trichophyton mentagrophytes. The data set is described as follows: Minimum fungicide concentration (MFC). The format is cell-based. The method, then: (§3) A qualitative analysis of the fungal viability was performed by transferring a portion of the wells to a plate with Sabouraud (Difco, BD Biosciences) medium and incubating it at 35°C for the time determined for each fungal agent. […] A visual reading was performed to confirm the death or growth inhibition provided by fluconazole and the sixteen semisynthetic substances derived from protocatechuic acid.

The test system of data set [6] is Trichophyton rubrum. The data set is described as follows: Minimum fungicide concentration (MFC). The format is cell-based. The protocol:
as §3

In data set [7] the test system is NOK (oral human keratinocyte) cell lines. The data set is described as follows: Sulphorhodamine B cytotoxicity assay. To be noted: NOK cells, 24 hours. It counts as cell-based. The method, then: The cytotoxicity of sixteen semisynthetic compounds derived from protocatechuic acid was assessed using a sulphorhodamine B assay in NOK (oral human keratinocyte) cell lines obtained from the American Type Culture Collection (Manassas, VA, USA). The strains were maintained in bottles appropriate for cell culture with keratinocyte serum free medium (Gibco, Life Technologies) and incubated in standard conditions of 37°C and 5% CO2. Cell concentrations ranging from 2.5 to 5.0 × 10^4 cells/mL were used for the formation of cell monolayers. The concentrations of pure substances were kept in contact with the cells for 24 hours. After the incubation period, the cells were treated with the sulphorhodamine B reagent (Sigma-Aldrich, St. Louis, MO, USA) as previously described by Skehan et al., with some modifications.
A general note: The SRB assay estimates cell density from bound dye.

A further data set concerns Saccharomyces cerevisiae. Set-up: method as in PMID 14592492. To be noted: cited from earlier work.
Setting [8] is: Tm3, T. mentagrophytes ATCC 40131.
Setting [9] is: Tr1, T. rubrum clinical isolate.
Where [10] appears, read: Tr2, T. rubrum clinical isolate.

As usually defined, the MIC is the lowest concentration that inhibits growth of the organism. What is called MFC is the smallest concentration meeting the test's criterion for killing the fungus. Consider `CCCCCCCCOC(=O)c1ccc(O)c(O)c1` [Protocatechuate octyl, octyl protocatechuate], for which the FIC index in data set [1] is reported as 0.72; with Trichophyton rubrum [2], 1.0. The “MIC of the protocatechuate, substances combined” value in data set [1] is 0.03 µg/mL; in the data set on Trichophyton rubrum [2] it was 0.06 µg/mL. The “association type (in words)” value (in data set [1]; in the data set with Trichophyton rubrum [2]) was “additive” in each case. Besides, the “MIC, substances alone” value in data set [1] (Tm1) came to 1.9 µg/mL; in data set [1] (Tm3 (ATCC 40131)) it was 3.9 µg/mL; with Trichophyton rubrum [2] (Tr1, checkerboard, 168 hours), 1.9 µg/mL. The “reduction in the MIC of the protocatechuate” value in the data set with Trichophyton rubrum [2] is 31.66 times. In addition, the minimum inhibitory concentration (MIC) in data set [3] (Tm1, clinical isolate) was 1.95 µg/mL (≈ 7.32 µM); in data set [3] (Tm2, clinical isolate), 1.95 µg/mL (≈ 7.32 µM); in data set [3] (setting [8]), 3.9 µg/mL (≈ 14.6 µM); in the data set with Trichophyton rubrum [4] (setting [9]) it was 1.95 µg/mL (≈ 7.32 µM); with Trichophyton rubrum [4] (setting [10]), 7.8 µg/mL (≈ 29.3 µM); against Trichophyton rubrum [4] (Tr3, T. rubrum ATCC MYA 3108), 0.97 µg/mL (≈ 3.64 µM). The minimal fungicidal concentration (MFC) turned out to be 3.90 µg/mL (≈ 14.6 µM) in data set [5] (Tm1, clinical isolate); 1.95 µg/mL (≈ 7.32 µM) in data set [5] (Tm2, clinical isolate); 3.9 µg/mL (≈ 14.6 µM) in data set [5] (setting [8]); 1.95 µg/mL (≈ 7.32 µM) with Trichophyton rubrum [6] (setting [9]); 7.8 µg/mL (≈ 29.3 µM) in the data set on Trichophyton rubrum [6] (setting [10]); 1.95 µg/mL (≈ 7.32 µM) in the data set with Trichophyton rubrum [6] (Tr3, T. rubrum ATCC MYA 3108). For the same compound, the “Cytotoxicity IC50” value in data set [7] worked out at 54.0 µg/mL. In the data set on Saccharomyces cerevisiae, the fungicidal activity entry is “fungicidal activity”.
